# Measurements taken from ChEMBL document CHEMBL5303573, “Mapping human microbiome drug metabolism by gut bacteria and their genes” (Nature, 2019).
# Target: T1, Lipolytic enzyme, G-D-S-L family (Bacteroides thetaiotaomicron, UniProt Q8A0E6)
# T1 sequence (Q8A0E6 whole entry): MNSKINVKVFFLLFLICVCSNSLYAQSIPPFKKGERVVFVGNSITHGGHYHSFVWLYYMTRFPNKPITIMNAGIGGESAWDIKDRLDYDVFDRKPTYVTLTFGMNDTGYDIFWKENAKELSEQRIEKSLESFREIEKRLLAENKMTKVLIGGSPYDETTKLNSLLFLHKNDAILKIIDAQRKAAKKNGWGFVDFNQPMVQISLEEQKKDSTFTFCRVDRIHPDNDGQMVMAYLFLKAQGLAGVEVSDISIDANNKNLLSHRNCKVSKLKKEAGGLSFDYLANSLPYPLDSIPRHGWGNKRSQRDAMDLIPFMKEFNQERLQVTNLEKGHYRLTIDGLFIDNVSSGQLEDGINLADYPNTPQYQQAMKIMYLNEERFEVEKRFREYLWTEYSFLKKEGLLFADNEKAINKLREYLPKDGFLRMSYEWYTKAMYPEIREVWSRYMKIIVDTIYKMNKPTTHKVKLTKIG
# Assay: (§1) The drug is tested on Bacteroides thetaiotaomicron strain: VPI-5482 for biotransformation. The drug concentrations were measured before and after a 12-h incubation by liquid-chromatography-coupled mass spectrometry (LC–MS)
# Format: ADME
# Design: dose 2 uM
# Conditions: 2 µM
row,Bacterial Biotransformation,Compound
1,Compound NOT metabolized,O=C(O)c1cc(/N=N/c2ccc(S(=O)(=O)Nc3ccccn3)cc2)ccc1O [SULFASALAZINE]
2,Compound NOT metabolized,CC(=O)Oc1ccc(C(c2ccc(OC(C)=O)cc2)c2ccccn2)cc1 [BISACODYL]
3,Compound NOT metabolized,CC(=O)SCC(Cc1ccccc1)C(=O)NCC(=O)OCc1ccccc1 (stereo not drawn) [RACECADOTRIL]

# Second part, the compound before the results:
row,Compound,Bacterial Biotransformation
1,CC(=O)OCC(=O)[C@@]12N=C(C)O[C@@H]1C[C@H]1[C@@H]3CCC4=CC(=O)C=C[C@]4(C)[C@H]3[C@@H](O)C[C@@]12C [DEFLAZACORT],Compound NOT metabolized
2,CCOC(=O)C1=C(C)NC(C)=C(C(=O)OC)C1c1cccc([N+](=O)[O-])c1 (stereo not drawn) [NITRENDIPINE],Compound NOT metabolized

# Target: T2, Sialic acid-specific 9-O-acetylesterase (Bacteroides thetaiotaomicron, UniProt Q8A0D0)
# T2 sequence (Q8A0D0 whole entry): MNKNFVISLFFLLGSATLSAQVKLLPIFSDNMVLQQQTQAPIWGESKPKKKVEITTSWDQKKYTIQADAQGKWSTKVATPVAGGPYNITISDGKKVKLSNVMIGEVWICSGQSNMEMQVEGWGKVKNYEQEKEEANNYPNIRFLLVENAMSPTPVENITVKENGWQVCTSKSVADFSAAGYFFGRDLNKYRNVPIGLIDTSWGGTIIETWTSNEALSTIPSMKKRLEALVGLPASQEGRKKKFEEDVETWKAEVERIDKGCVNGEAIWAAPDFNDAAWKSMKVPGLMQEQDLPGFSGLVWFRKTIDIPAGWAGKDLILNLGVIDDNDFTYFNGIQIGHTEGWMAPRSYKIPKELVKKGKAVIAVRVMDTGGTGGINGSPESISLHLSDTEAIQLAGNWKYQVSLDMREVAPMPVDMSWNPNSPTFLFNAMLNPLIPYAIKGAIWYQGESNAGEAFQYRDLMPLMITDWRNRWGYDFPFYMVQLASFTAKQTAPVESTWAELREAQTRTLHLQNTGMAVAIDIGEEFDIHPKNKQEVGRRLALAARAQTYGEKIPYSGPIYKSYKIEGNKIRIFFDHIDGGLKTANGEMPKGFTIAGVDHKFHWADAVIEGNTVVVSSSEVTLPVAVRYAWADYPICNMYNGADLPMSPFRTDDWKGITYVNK
# Assay: as §1
# Format: ADME
# Design: dose 2 uM
# Conditions: 2 µM
row,Bacterial Biotransformation,Compound
1,Compound NOT metabolized,O=C(O)c1cc(/N=N/c2ccc(S(=O)(=O)Nc3ccccn3)cc2)ccc1O [SULFASALAZINE]
2,Compound metabolized,CC(=O)Oc1ccc(C(c2ccc(OC(C)=O)cc2)c2ccccn2)cc1 [BISACODYL]
3,Compound metabolized,CC(=O)SCC(Cc1ccccc1)C(=O)NCC(=O)OCc1ccccc1 (stereo not drawn) [RACECADOTRIL]

# Second part, the compound before the results:
row,Compound,Bacterial Biotransformation
1,CC(=O)OCC(=O)[C@@]12N=C(C)O[C@@H]1C[C@H]1[C@@H]3CCC4=CC(=O)C=C[C@]4(C)[C@H]3[C@@H](O)C[C@@]12C [DEFLAZACORT],Compound NOT metabolized
2,CCOC(=O)C1=C(C)NC(C)=C(C(=O)OC)C1c1cccc([N+](=O)[O-])c1 (stereo not drawn) [NITRENDIPINE],Compound NOT metabolized

# Target: T3, Endoglucanase E (EGE) (Bacteroides thetaiotaomicron, UniProt Q8AAL9)
# T3 sequence (Q8AAL9 whole entry): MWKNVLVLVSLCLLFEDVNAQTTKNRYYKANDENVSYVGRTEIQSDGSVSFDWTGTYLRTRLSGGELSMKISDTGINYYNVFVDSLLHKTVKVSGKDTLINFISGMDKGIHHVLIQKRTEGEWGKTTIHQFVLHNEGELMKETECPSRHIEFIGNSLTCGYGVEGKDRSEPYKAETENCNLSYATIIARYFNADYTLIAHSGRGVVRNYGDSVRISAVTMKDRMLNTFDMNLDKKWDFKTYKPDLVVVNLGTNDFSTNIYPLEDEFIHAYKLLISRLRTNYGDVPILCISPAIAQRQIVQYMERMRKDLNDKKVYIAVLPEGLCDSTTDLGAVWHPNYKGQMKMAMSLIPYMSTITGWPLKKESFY
# Assay: as §1
# Format: ADME
# Design: dose 2 uM
# Conditions: 2 µM
row,Compound,Bacterial Biotransformation
1,CC(=O)OCC(=O)[C@@]12N=C(C)O[C@@H]1C[C@H]1[C@@H]3CCC4=CC(=O)C=C[C@]4(C)[C@H]3[C@@H](O)C[C@@]12C [DEFLAZACORT],Compound NOT metabolized
2,O=C(O)c1cc(/N=N/c2ccc(S(=O)(=O)Nc3ccccn3)cc2)ccc1O [SULFASALAZINE],Compound NOT metabolized
3,CC(=O)Oc1ccc(C(c2ccc(OC(C)=O)cc2)c2ccccn2)cc1 [BISACODYL],Compound metabolized
4,CC(=O)SCC(Cc1ccccc1)C(=O)NCC(=O)OCc1ccccc1 (stereo not drawn) [RACECADOTRIL],Compound NOT metabolized

# Target: T4, Sialic acid-specific acetylesterase (Bacteroides thetaiotaomicron, UniProt Q8A331)
# T4 sequence (Q8A331 whole entry): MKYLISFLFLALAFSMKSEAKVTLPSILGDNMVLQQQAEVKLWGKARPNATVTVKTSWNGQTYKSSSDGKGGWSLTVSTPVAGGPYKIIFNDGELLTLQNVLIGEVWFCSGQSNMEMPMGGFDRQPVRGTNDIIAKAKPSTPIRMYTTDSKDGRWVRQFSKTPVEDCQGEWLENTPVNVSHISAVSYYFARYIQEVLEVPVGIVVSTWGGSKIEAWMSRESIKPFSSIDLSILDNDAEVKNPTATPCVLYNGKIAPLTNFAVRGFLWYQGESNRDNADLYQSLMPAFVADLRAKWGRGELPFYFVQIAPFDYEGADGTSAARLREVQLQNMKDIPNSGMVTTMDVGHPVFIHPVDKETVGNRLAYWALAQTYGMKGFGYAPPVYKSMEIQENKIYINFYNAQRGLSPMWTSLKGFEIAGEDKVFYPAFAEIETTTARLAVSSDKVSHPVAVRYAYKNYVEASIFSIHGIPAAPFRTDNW
# Assay: as §1
# Format: ADME
# Design: dose 2 uM
# Conditions: 2 µM
row,Compound,Bacterial Biotransformation
1,O=C(O)c1cc(/N=N/c2ccc(S(=O)(=O)Nc3ccccn3)cc2)ccc1O [SULFASALAZINE],Compound NOT metabolized
2,CC(=O)Oc1ccc(C(c2ccc(OC(C)=O)cc2)c2ccccn2)cc1 [BISACODYL],Compound metabolized
3,CC(=O)SCC(Cc1ccccc1)C(=O)NCC(=O)OCc1ccccc1 (stereo not drawn) [RACECADOTRIL],Compound metabolized
4,CCOC(=O)C1=C(C)NC(C)=C(C(=O)OC)C1c1cccc([N+](=O)[O-])c1 (stereo not drawn) [NITRENDIPINE],Compound NOT metabolized

# Target: T5, Acyltransferase (Bacteroides thetaiotaomicron, UniProt Q8A575)
# T5 sequence (Q8A575 whole entry): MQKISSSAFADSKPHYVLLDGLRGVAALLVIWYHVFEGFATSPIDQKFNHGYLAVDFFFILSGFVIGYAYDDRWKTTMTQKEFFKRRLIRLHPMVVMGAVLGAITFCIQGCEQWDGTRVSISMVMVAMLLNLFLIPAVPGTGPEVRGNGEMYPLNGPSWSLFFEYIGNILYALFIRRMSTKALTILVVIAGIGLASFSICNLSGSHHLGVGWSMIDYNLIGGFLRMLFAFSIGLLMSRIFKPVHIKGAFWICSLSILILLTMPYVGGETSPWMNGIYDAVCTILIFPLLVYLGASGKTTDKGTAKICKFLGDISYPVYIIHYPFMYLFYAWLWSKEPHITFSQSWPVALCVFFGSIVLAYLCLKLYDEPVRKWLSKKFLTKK
# Assay: as §1
# Format: ADME
# Design: dose 2 uM
# Conditions: 2 µM
row,Bacterial Biotransformation,Compound
1,Compound NOT metabolized,O=C(O)c1cc(/N=N/c2ccc(S(=O)(=O)Nc3ccccn3)cc2)ccc1O [SULFASALAZINE]
2,Compound NOT metabolized,CC(=O)Oc1ccc(C(c2ccc(OC(C)=O)cc2)c2ccccn2)cc1 [BISACODYL]
3,Compound NOT metabolized,CC(=O)SCC(Cc1ccccc1)C(=O)NCC(=O)OCc1ccccc1 (stereo not drawn) [RACECADOTRIL]

# The remaining lines, values behind:
row,Compound,Bacterial Biotransformation
1,CC(=O)OCC(=O)[C@@]12N=C(C)O[C@@H]1C[C@H]1[C@@H]3CCC4=CC(=O)C=C[C@]4(C)[C@H]3[C@@H](O)C[C@@]12C [DEFLAZACORT],Compound NOT metabolized
2,CCOC(=O)C1=C(C)NC(C)=C(C(=O)OC)C1c1cccc([N+](=O)[O-])c1 (stereo not drawn) [NITRENDIPINE],Compound NOT metabolized

# Target: T6, Regulatory protein (Bacteroides thetaiotaomicron, UniProt Q8A576)
# T6 sequence (Q8A576 whole entry): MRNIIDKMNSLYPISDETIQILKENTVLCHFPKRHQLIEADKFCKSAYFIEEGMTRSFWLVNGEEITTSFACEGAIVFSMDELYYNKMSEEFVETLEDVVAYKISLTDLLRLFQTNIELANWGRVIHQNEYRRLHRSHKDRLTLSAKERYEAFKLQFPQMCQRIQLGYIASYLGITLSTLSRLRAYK
# Assay: as §1
# Format: ADME
# Design: dose 2 uM
# Conditions: 2 µM
row,Bacterial Biotransformation,Compound
1,Compound NOT metabolized,O=C(O)c1cc(/N=N/c2ccc(S(=O)(=O)Nc3ccccn3)cc2)ccc1O [SULFASALAZINE]
2,Compound NOT metabolized,CC(=O)Oc1ccc(C(c2ccc(OC(C)=O)cc2)c2ccccn2)cc1 [BISACODYL]
3,Compound NOT metabolized,CC(=O)SCC(Cc1ccccc1)C(=O)NCC(=O)OCc1ccccc1 (stereo not drawn) [RACECADOTRIL]

# More lines, now with the values behind:
row,Compound,Bacterial Biotransformation
1,CC(=O)OCC(=O)[C@@]12N=C(C)O[C@@H]1C[C@H]1[C@@H]3CCC4=CC(=O)C=C[C@]4(C)[C@H]3[C@@H](O)C[C@@]12C [DEFLAZACORT],Compound NOT metabolized
2,CCOC(=O)C1=C(C)NC(C)=C(C(=O)OC)C1c1cccc([N+](=O)[O-])c1 (stereo not drawn) [NITRENDIPINE],Compound NOT metabolized

# Target: General stress protein (Bacteroides thetaiotaomicron, UniProt Q8A7U5)
# Assay: as §1
# Format: ADME
# Design: dose 2 uM
# Conditions: 2 µM
# Chain of General stress protein (Q8A7U5 1-138, change not shown): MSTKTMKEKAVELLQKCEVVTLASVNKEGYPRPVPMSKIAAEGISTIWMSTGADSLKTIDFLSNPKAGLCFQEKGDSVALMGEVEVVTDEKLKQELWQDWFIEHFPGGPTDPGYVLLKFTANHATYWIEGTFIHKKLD
row,Bacterial Biotransformation,Compound
1,Compound metabolized,O=C(O)c1cc(/N=N/c2ccc(S(=O)(=O)Nc3ccccn3)cc2)ccc1O [SULFASALAZINE]
2,Compound NOT metabolized,CC(=O)Oc1ccc(C(c2ccc(OC(C)=O)cc2)c2ccccn2)cc1 [BISACODYL]
3,Compound NOT metabolized,CC(=O)SCC(Cc1ccccc1)C(=O)NCC(=O)OCc1ccccc1 (stereo not drawn) [RACECADOTRIL]

# More lines, now with the values behind:
row,Compound,Bacterial Biotransformation
1,CC(=O)OCC(=O)[C@@]12N=C(C)O[C@@H]1C[C@H]1[C@@H]3CCC4=CC(=O)C=C[C@]4(C)[C@H]3[C@@H](O)C[C@@]12C [DEFLAZACORT],Compound NOT metabolized
2,CCOC(=O)C1=C(C)NC(C)=C(C(=O)OC)C1c1cccc([N+](=O)[O-])c1 (stereo not drawn) [NITRENDIPINE],Compound NOT metabolized

# Target: T7, Nitroreductase (Bacteroides thetaiotaomicron, UniProt Q8A911)
# T7 sequence (Q8A911 whole entry): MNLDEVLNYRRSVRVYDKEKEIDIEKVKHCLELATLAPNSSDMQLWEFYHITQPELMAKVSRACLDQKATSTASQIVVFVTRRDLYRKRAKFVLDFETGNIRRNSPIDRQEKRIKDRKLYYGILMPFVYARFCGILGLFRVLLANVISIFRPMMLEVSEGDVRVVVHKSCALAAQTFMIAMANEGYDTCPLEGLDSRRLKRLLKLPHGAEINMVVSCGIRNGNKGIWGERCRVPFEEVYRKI
# Assay: as §1
# Format: ADME
# Design: dose 2 uM
# Conditions: 2 µM
row,Bacterial Biotransformation,Compound
1,Compound NOT metabolized,O=C(O)c1cc(/N=N/c2ccc(S(=O)(=O)Nc3ccccn3)cc2)ccc1O [SULFASALAZINE]
2,Compound NOT metabolized,CC(=O)Oc1ccc(C(c2ccc(OC(C)=O)cc2)c2ccccn2)cc1 [BISACODYL]
3,Compound NOT metabolized,CC(=O)SCC(Cc1ccccc1)C(=O)NCC(=O)OCc1ccccc1 (stereo not drawn) [RACECADOTRIL]

# Second part, the compound before the results:
row,Compound,Bacterial Biotransformation
1,CC(=O)OCC(=O)[C@@]12N=C(C)O[C@@H]1C[C@H]1[C@@H]3CCC4=CC(=O)C=C[C@]4(C)[C@H]3[C@@H](O)C[C@@]12C [DEFLAZACORT],Compound NOT metabolized
2,CCOC(=O)C1=C(C)NC(C)=C(C(=O)OC)C1c1cccc([N+](=O)[O-])c1 (stereo not drawn) [NITRENDIPINE],Compound NOT metabolized
